This is an account of results in patent publication US20240317707A1, “COVALENT AND NON-COVALENT INHIBITORS OF CORONAVIRUS PAPAIN-LIKE PROTEASE” (UT-Battelle, LLC, priority 2023, published 2024).

Each structure is given as a SMILES string.

Series [1] has as its system SARS-CoV-2 isolate USA-WA1/2020. The experiment in a line: microbe, parasite or virus in culture. Conditions: Severe acute respiratory syndrome coronavirus 2, Vero C1008, Vero E6 TMPRSS ACE2 cells, treated 1 hr with compound, MOI=0.1, 48 h; for EC50: read-out: CPE EC50; for EC90: read-out: CPE EC90. The series is classed as cell-based.
Another series can be described thus: in vitro. Conditions: African green monkey.

What is called EC50 is the midpoint of the concentration-response curve. As a reminder, the EC90 is the concentration needed for an effect of 90%. On to `COC(=O)/C=C/C(=O)NNC(=O)CCc1ccccc1C(=O)NC1(c2cccc3ccccc23)CC1` [NEU-7768], for which, in series [1], the EC50 amounted to 22 nM and the EC90 was found to be 250 nM. Moreover, the CC50 at 48 h in the series “in vitro” was greater than 10000 nM.

`COC(=O)/C=C/C(=O)NNC(=O)CCc1ccccc1C(=O)N[C@H](C)c1cccc(-c2cnc(CN3CC[C@H](O)C3)s2)c1` [NEU-7770]: in series [1], the EC50 worked out at 140 nM and the EC90 was 880 nM. In the series “in vitro”, this compound registered a CC50 at 48 h greater than 10000 nM.

Turning to `C[C@@H](NC(=O)c1ccccc1CCC(=O)NNC(=O)/C=C/C(=O)O)c1cccc2ccccc12` [NEU-8114], in series [1], the EC50 came out at 15 nM and the EC90 is 160 nM. Besides, in “in vitro”, the CC50 at 48 h is greater than 10000 nM.

For `COC(=O)/C=C/C(=O)NNC(=O)CCc1ccccc1C(=O)N[C@@H](c1cccc2ccccc12)C(F)(F)F` [NEU-7772], the EC50 in series [1] is greater than 10000 nM. In “in vitro”, this compound yielded a CC50 at 48 h greater than 10000 nM.

Regarding `COC(=O)/C=C/C(=O)NNC(=O)CCc1ccccc1C(=O)NC1(c2cccc3ccccc23)COC1` [NEU-7769], in series [1], the EC50 turned out to be 1500 nM and the EC90 came to 3200 nM. In “in vitro”, this compound displayed a CC50 at 48 h greater than 10000 nM.

Take `COC(=O)/C=C/C(=O)NNC(=O)C(F)(F)c1ccccc1C(=O)N[C@H](C)c1cccc2ccccc12` [NEU-7792]: in series [1], the EC50 came to 240 nM and the EC90 came out at 820 nM. The compound further had a CC50 at 48 h in the series “in vitro” greater than 10000 nM.
